From patent US20060178342A1, “Hyaluronan as a cytotoxic agent, drug pre-sensitizer and chemo-sensitizer in the treatment of disease” (priority 2001, published 2006)
Entries after “also recorded” stand apart in the source; their conditions may differ.

Legend:
MDA-MB-231 = experiment: Breast cancer cell count assay (Coulter counter), HA ± adriamycin; type: cell-based, human
Method: (§1) Cell lines MDA-MB-468, MDA-MB-435 and MDA-MB-231 were routinely grown and subcultured as a monolayer in 175 cm^2 culture flasks in Leibovitz L-15 Medium supplemented with 10% Foetal calf serum (FCS) and antibiotic/antimycotic reagents at 37° C. in humidity controlled incubator with 100% (v/v) air.
(§2) For the tests, MDA MB-468, MDA MB-231 and MDA MB-435 cell line were grown in 90% Leibovitz L-15 medium supplemented with 10% FCS. When confluent the cultures were washed 1× in HBSS and trypsinised in 0.25% trypsin/0.05% EDTA. The cell suspensions were counted with an automated cell counter (ZM-2 Coulter Counter) by adding 15 mL saline+0.2 ml of cell suspension. • Cells were resuspended to a number of:
(§3) The cells were plated into 48-well plates (1 cm^2 surface area) by adding 1 ml of cell suspension per well. • Cells were allowed to attach for 24 h, before the media was removed, monolayers washed. The test media was; growth media containing 0-1 μM adriamycin or 5-fluorouracil with or without the addition of 0-1 μM of HA (modal Mw 750,000).
(§4) The cells were exposed to the several combinations of HA and drugs for different times and at different concentrations (Table 3).
(§5) After the incubation and growth periods the cell monolayers were washed with HBSS and trypsinised in 0.25% trypsin/0.05% EDTA. The cell suspensions were counted with an automated cell counter (ZM-2 Coulter Counter) by adding 15 mL saline+0.2 ml of cell suspension. Results were expressed as % of no drug control which was calculated as: […]

MDA-MB-435 = experiment: as above; type: cell-based, human
Method: as §1, §2, §3, §4, §5

MDA-MB-468 = experiment: as above; type: cell-based, human
Method: as §1, §2, §3, §4, §5

[1] = tested on: human breast cancer cells; experiment: Breast cancer cell count assay, cell line not specified or pooled; type: cell-based; settings: HA incubated 30 min, 1 h, 24 h or 3 days
Method: The cell suspensions were counted with an automated cell counter (ZM-2 Coulter Counter) by adding 15 mL saline+0.2 ml of cell suspension. • Cells were resuspended to a number of: […] The cell suspensions were counted with an automated cell counter (ZM-2 Coulter Counter) by adding 15 mL saline+0.2 ml of cell suspension. Results were expressed as % of no drug control which was calculated as: […]

[2] = tested on: MDA-MB-468 human breast carcinoma xenografts; experiment: 6-week efficacy study of HA ± 5-FU in nude mouse xenografts; type: in vivo
Method: From the results in Example 2 the carcinoma cell line MDA-MB-468 was selected as the cancer cell inoculant for the generation of any nude mouse human tumour xenografts. Cells were routinely grown and subcultured as a previously described in Example 2. For injection into mice, cells were grown to 100% confluency, trypsinised in 0.025% trypsin/0.01% EDTA solution, washed twice by centrifugation in a Beckman TJ-6 bench centrifuge at 400 gav for 10 min, counted using a Model-ZM Coulter counter and resuspended in serum-free Leibovitz L-15 medium at 1×10^8 cells/ml. […]
Individual injections of 5-FU were prepared according to individual mouse masses, with the aim of delivering 30 mg/kg 5-FU in 50 μl (equivalent to human therapeutic dose of 10.5 mg/kg for a mean body weight of 60 kg; Inaba et al, 1988). […] With this quantity of HA injected into the body, saturation kinetics would be observed for the period of the experimentation (Fraser et al, 1983). […]
Animals were weighed and tumour volumes measured on the day of treatment application for long term study. In the 6-week study animals were weighed and tumour volumes measured on a daily basis. […]
Tumour volume was monitored on a daily or weekly basis by caliper measurements and tumour volume calculated as previously described.

Substance: hyaluronan [HA]
- Cytotoxic effect of HA, change in cell number (MDA-MB-231; HA exposure 30 min 100 nM): −27%
- Cytotoxic effect of HA, change in cell number (MDA-MB-231; HA exposure 30 min 1000 nM): −26%
- Cytotoxic effect of HA, change in cell number (MDA-MB-231; HA exposure 1 h 100 nM): −21%
- Cytotoxic effect of HA, change in cell number (MDA-MB-231; HA exposure 24 h 100 nM): −8%
- Cytotoxic effect of HA, change in cell number (MDA-MB-231; HA exposure 3 days 100 nM): −23%
- Cytotoxic effect of HA, change in cell number (MDA-MB-435; HA exposure 30 min 100 nM): −12%
- Cytotoxic effect of HA, change in cell number (MDA-MB-435; HA exposure 30 min 500 nM): 0
- Cytotoxic effect of HA, change in cell number (MDA-MB-435; HA exposure 1 h 100 nM): −4%
- Cytotoxic effect of HA, change in cell number (MDA-MB-435; HA exposure 24 h 100 nM): −12%
- Cytotoxic effect of HA, change in cell number (MDA-MB-435; HA exposure 3 days 100 nM): −22%
- Cytotoxic effect of HA, change in cell number (MDA-MB-468; HA exposure 30 min 100 nM): −5%
- Cytotoxic effect of HA, change in cell number (MDA-MB-468; HA exposure 30 min 500 nM): −22%
- Cytotoxic effect of HA, change in cell number (MDA-MB-468; HA exposure 30 min 1000 nM): +2%
- Cytotoxic effect of HA, change in cell number (MDA-MB-468; HA exposure 1 h 100 nM): +3%
- Cytotoxic effect of HA, change in cell number (MDA-MB-468; HA exposure 24 h 100 nM): −5%
- Cytotoxic effect of HA, change in cell number (MDA-MB-468; HA exposure 3 days 100 nM): −29%
- reduction in breast cancer cell number [1]: 0-29%
- non-lymphoid metastasis (new tumours near primary tumour) ([2]; 6-week study): significant reduction in non-lymphoid metastasis
- tumour mass at the end of the 6 week study, compared with other groups ([2]; iv 12.5 mg/kg HA and/or 30 mg/kg 5-FU, 6 x 7 day cycles): significantly decreased the primary tumour mass; also recorded: reducing the primary tumour mass in comparison to the saline control
